Results on four molecules are retold here after patent US20120190615A1, “METHODS AND COMPOSITIONS FOR INDUCING WEIGHT LOSS” (Sanford-Burnham Medical Research Institute, priority 2011, published 2012).

One experiment concerns C3H10T1/2 cells. Put plainly: Oxygen consumption / uncoupled respiration of cultured mesenchymal stem cells. The format is cell-based, mouse. From the text:
To determine whether the increased respiration was uncoupled from ATP synthesis, oligomycin-insensitive respiration was first assayed as a measure of uncoupled respiration. Oligomycin inhibits F1 ATP synthetase to suppress only oxidative phosphorylation-associated respiration.

A further experiment has as its system HIB1 cells. Put plainly: Differentiation of HIB1 brown preadipocytes (lipid accumulation, mitochondrial biogenesis). Type of experiment: cell-based. To be noted: SB408124 1 uM, OX treatment for 5 days. The procedure:
To further investigate the role of OX in BAT differentiation, the effect of OX on the preadipocyte cell line HIB1 was evaluated. […] Expression of genes functioning in lipid metabolism and mitochondrial biogenesis was elevated while the anti-adipogenic factors […], Pref1, and Wnt10 were expressed at very low levels (FIG. 16).
HIB1 cells were stably transfected with lentivirus over-expressing orexin (Len-OX) and compared to vector controls in the absence or presence of exogenous OX (100 nM), Cells were cultured for 7 days in the absence of differentiation medium and stained with Oil Red O. By day 6 of adipogenic differentiation, orexin-expressing cells had undergone normal BAT differentiation as scored by lipid accumulation.
Brown fat morphological defects seen in both adult and newborn OXR1 KO mice were similar to those observed in OX KO mice. […] To examine the cellular and molecular consequences of OXR1 depletion, lentiviral vectors were used to express a short hairpin (sh) shRNA targeting OXR1 (shOXR1; Open Biosystems, Inc., catalog no. RMM4431-98766481) or a scrambled shRNA control (Open Biosystems, Inc., catalog no. RHS4346) in HIB1 mesenchymal cells. […] After 5 days of differentiation, cultures expressing the scrambled shRNA control had undergone brown fat differentiation as scored by Oil Red O staining and shown in FIG. 18. […]

Experiment [1] relates to primary brown preadipocytes. Put plainly: Differentiation of primary brown preadipocytes (Oil Red O). Type of experiment: cell-based, mice. As to conditions: 3 days BMP7 or 100 nM OX, then adipogenic medium. From the text: To assess differentiation of primary brown adipocytes, iBAT preadipocytes were isolated from 1-day-old mice and then differentiated in the presence of OX. Differentiation was confirmed by Oil Red O staining which visualizes lipid accumulation (FIG. 7). […] Taken together. OX activates a full program of brown fat adipogenesis by suppressing adipogenic inhibitors, including BAT regulators, elevating mitochondrial biogenesis and oxygen consumption, and inducing uncoupled respiration.
To investigate whether lack of OXR1 impaired BAT differentiation potential, primary brown preadipocytes from OXR1 knockout mice were isolated and differentiated. Generation of wild-type primary brown preadipocyte cell lines was derived from newborn wild-type mice as described previously by Klein et al. (Bioessays, 24: 382-388, 2002), which is hereby incorporated by reference in its entirety. Brown preadipocytes isolated from C57BL-6 mice served as positive control. All cell lines were maintained in Dulbecco's modified […] medium (DMEM), high glucose, supplemented with 10% FBS at 37° C. in a 5% CO2 environment. To induce adipogenesis, the cells were treated for 3 days with either BMP7 or 100 nM OX, at which time they were confluent. Cells were then incubated in adipogenic medium containing 0.125 mM indomethaein, […] dexamethazone, and […] 3-isobutyl-1-methyxanthine (IBMX) supplemented by 20 nM insulin as described by Tseng et al., (Nature, 454: 1000-1004, 2008) which is hereby incorporated by reference in its entirety.

Take `CC[C@H]1/C=C/C=C/C[C@@H](C)[C@H](O)[C@@](C)(O)C(=O)[C@@H](C)[C@H](O)[C@@H](C)C(=O)[C@@H](C)[C@H](O)[C@@H](C)/C=C/C(=O)O[C@@H]2[C@H](C)[C@H](CC1)O[C@]1(CC[C@H](C)[C@H](C[C@@H](C)O)O1)[C@H]2C` [oligomycin, reference compound]: in the experiment with C3H10T1/2 cells (absence of OX), the “respiration of unstimulated differentiated cells” value was “completely suppressed respiration”.
As to `Cc1cc(NC(=O)Nc2ccc(N(C)C)cc2)c2cc(F)cc(F)c2n1` [SB408124, reference compound], the OX-dependent mitochondrial biogenesis entry with HIB1 cells was “blunted”.
`N#CC(C#N)=NNc1ccc(OC(F)(F)F)cc1` [FCCP, reference compound]: the “oxygen consumption of unstimulated, differentiated cells, increase” value in the experiment with C3H10T1/2 cells (in the presence of FCCP) is given as 6 fold.

B1: BMP-7: recombinant human BMP-7 (cat. No. 4579, BioVision), a potent inducer of BAT differentiation (protein, UniProt P18075 293-431, looked up)
Bone morphogenetic protein 7: STGSKQRSQNRSKTPKNQEALRMANVAENSSSDQRQACKKHELYVSFRDLGWQDWIIAPEGYAAYYCEGECAFPLNSYMNATNHAIVQTLVHFINPETVPKPCCAPTQLNAISVLYFDDSSNVILKKYRNMVVRACGCH
As to B1, in experiment [1], the “differentiation of wild-type preadipocytes based on lipid accumulation” value is given as “enhanced differentiation”. Besides, the “oxygen consumption of treated cells in the presence of oligomycin” value with C3H10T1/2 cells (oligomycin) is given as “efficiently consumed oxygen”.
